Test results from patent US12458660B2, “Methods of attenuating an immune response by inhibition of BFL1” (CHILDREN'S HOSPITAL MEDICAL CENTER, priority 2018, dated 2025).

Experiments:
[1] = test system: chorio-decidua neutrophils; experiment: Chorio-decidua neutrophil survival in culture (Annexin V-/7aad- by flow cytometry); type: cell-based, Rhesus
Method: Importantly, Bcl2A1 was specifically expressed by CD neutrophils, and rhIL1ra decreased BCL2A1+ neutrophils (FIG. 9B). Neutrophil expression of Bcl2A1 could be constitutive or induced. Since control CAD tissue have very few neutrophils, we compared expression of Bcl2A1 and other important mediators of apoptosis in CD neutrophils vs. blood neutrophils from the same IA LPS-exposed animals.
Neutrophils were cultured overnight (16 h) at 37° C., in 5% CO2 in DMEM:F12 containing 10% fetal bovine serum, 100 IU/ml penicillin, 100 IU/ml streptomycin, and 2 mmol/L glutamine, in 24-well plate ([…] were stained with a cocktail of Abs as above for immunophenotyping and analyzed by flow cytometry within 30 minutes and cell survival was indicated as percentage of Annexin V^−/7aad^− cells (BD Bioscience).
The chosen doses were optimum based on dose response curves that were generated using blood neutrophils. ABT737 concentrations≥1 μM were toxic to the cells (not shown).

[2] = molecular target: T1, BCL2A1 (A1) - NOXA binding (Mus musculus, UniProt Q07440, C113S/P104K); experiment: Competition fluorescence polarization assay, displacement of FITC-labeled mNOXA peptide from A1
T1 construct: A1 residues 1-152 (P104K, C113S) were expressed in the BL21 strain of Escherichia coli; hexa-His-MBP (cleaved yes); made in house; host or cells: Escherichia coli BL21
T1 sequence (Q07440 1-152 P104K/C113S): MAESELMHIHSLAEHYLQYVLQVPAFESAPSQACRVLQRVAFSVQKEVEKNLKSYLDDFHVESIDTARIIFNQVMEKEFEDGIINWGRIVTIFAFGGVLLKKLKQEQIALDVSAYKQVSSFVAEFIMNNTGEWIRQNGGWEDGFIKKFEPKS
Method: Representative compounds were additionally tested for inhibition of BH3 binding through competition-based fluorescence polarization (FP) assays. These assays were carried out using fluorescently labeled NOXA peptide which binds within the BH3-binding groove. The FP assay measures the tumbling rate of the labeled NOXA peptide. When NOXA is bound to A1, its rate of tumbling is low (and FP is high), whereas an effective inhibitor compound will displace NOXA, causing a fast rate of tumbling (and low FP value). Initially, a single high-dose experiment was performed with each compound using 100 μM of compound with BCL2A1 and FITC-NOXA, to observe the relative inhibition of the A1-NOXA interaction (FIG. 17B).
These compounds and any that were three standard deviations or more above the thermal shift controls in the DSF assays, along with those that were initially derived from early compounds with reasonable IC50 values, were tested in a dose-response experiment. To this end, 30 putative P2 inhibitors and 44 putative P4 inhibitors had their IC50 values determined. Of the dose responses, there was a surprising enrichment of putative P4 inhibitors among those that had IC50 values less than 50 μM. […] The following linear equation was used in the calculations (Tallarida et al., 2011),
Compounds were additionally tested for specificity of binding by displacement of FITC-labeled mouse NOXA (mNoxa; Peptide 2.0) peptide via fluorescence polarization assay (FP). FP assays were performed in two steps: single-point high-concentration compounds and dose response of fluorescence polarization hits. A1 was added at 3 μM to 100 μM of each compound in 20 mM Tris pH 7, 500 mM NaCl, 0.005% Tween-20 buffer. After addition of 375 nM labeled mNOXA, 96-well plates were incubated overnight at 20° C. in the dark to achieve equilibrium before fluorescence polarization was measured with a Biotek Synergy H2. Autofluorescent compounds and fluorescent quenching compounds were corrected via ratiometric correction as described by Shapiro et al., 2009.
Dose response curves were measured by adding 3 μM A1 to a serial two-fold dilution series of each compound ranging from 400 μM to 781 nM in 20 mM Tris pH 7, 500 mM NaCl, 0.005% Tween-20 buffer. Some compounds were further tested to assess the accuracy of these two-fold dilutions with serial 1.33-fold dilutions. A1, compounds, buffer and lastly, 375 nM FITC-labeled mNOXA were added to each well and incubated in the dark at 20° C. overnight to achieve equilibrium, followed by measurement of polarization. All dose responses were performed in triplicate.

primary splenocyte cells = experiment: In vitro apoptosis assay in activated primary splenocyte cells (trypan blue); type: cell-based, mice; details: WT and Bax/Bak-/- splenocytes, +/- polybrene
Method: An in vitro apoptosis assay utilizing primary splenocyte cells was used as a model system. In this system, compounds were added to wild-type primary splenocyte cells from mice that had been cultured and activated over four days. […] Mice deficient in Bax/Bak are unable to undergo intrinsic apoptosis due to the lack of the executioners in the pathway. […] Polybrene™ (hexadimethrine bromide) is a transfection reagent used to assist negatively-charged DNA molecules in traversal of the plasma membrane. Polybrene was included here to test whether it would improve the activity of negatively charged compounds.
Single-cell suspensions from spleen were generated by maceration through a 100 μm nylon mesh followed by LympholyteM ficoll gradient separation (Cedarlane Labs, Burlington, NC). Purified cells were then cultured on anti-CD3 coated (3 μg/mL, coated overnight, Biolegend, San Diego, CA) six-well plates in the presence of soluble anti-CD28 (2 μg/mL, Bio X Cell, West Lebanon, NH) and IL-2 (10 ng/mL, R&D Systems, Inc., Minneapolis, MN) in RPMI media (Life Technologies, Carlsbad, CA) for 24 hours at 37° C. Cells were then washed and cultured again in IL-2 (10 ng/mL) for 24 hours at 37° C. […]

[3] = Anakinra (rhIL-1ra) pharmacokinetics in pregnant Rhesus macaques, human IL-1ra ELISA; type: in vivo, Rhesus macaques (Macaca mulatta)
Method: Recombinant human IL-1 receptor antagonist (“Anakinra” or “rhIL 1ra”) was injected into the amniotic fluid (“AF”) and subcutaneously in the dams (FIG. 3A). […] The low (0.2%) diffusion of Anakinra from maternal blood to amniotic fluid 2 h after maternal subcutaneous (SC) before the AF Anakinra dosing is notable. In addition, a slower clearance of Anakinra from the AF compared to maternal plasma is observed.
(§1) All animal procedures were approved by the Institutional Animal Care and Use Committee at the University of California, Davis. Normally cycling, adult female rhesus macaques (Macaca mulatta) (n=43) were time mated. At ˜130 d of gestation (˜80% of term gestation), the pregnant rhesus received either 1 ml saline solution (n=16) or 1 mg LPS (Sigma-Aldrich, St. Louis, MO) in 1 ml saline solution by ultrasound-guided IA injection. Dams were surgically delivered 16 h (n=13) or 48 h (n=8) later. Multiparous macaques and their fetuses were similar in demographics (Table 4). After delivery, fetuses were euthanized with pentobarbital, and fetal tissues were collected. There were no spontaneous deaths or preterm labor in the animals. IL-1 signaling was blocked by recombinant human IL-1R antagonist (rhIL-1RA; Anakinra Sobi, Stockholm, Sweden) given to the pregnant monkey IA (50 mg) and subcutaneous (100 mg) 1 and 3 h before LPS, as previously described (Rueda et al., 2016; FIG. 3).
Cytokine/chemokine concentrations in AF, fetal, and maternal plasma were determined by Luminex using non-human primate multiplex kits (Millipore). Lipids were extracted from the AF using methanol to measure Prostaglandins PGE2 (Oxford Biomedical Research, Oxford, MI) and PGF2a (Cayman Chemical, Ann Arbor, MI) concentrations. Anakinra (rhIL1ra) levels in AF, fetal, and maternal plasma were determined by human IL1ra/IL-1F3 Quantikine ELISA kit (R&D System, Minneapolis, […]). This kit has low cross-reactivity to Rhesus IL-1ra.

[4] = test system: IA LPS-induced chorioamnionitis (IL-1 signaling); experiment: LPS-induced chorioamnionitis Rhesus monkey model with IL-1R blockade; type: in vivo, Rhesus macaques (Macaca mulatta)
Source text: We utilized the LPS-induced chorioamnionitis Rhesus monkey model system to study the pathogenesis of IUI, and particularly the role of IL-1 signaling in chorioamnionitis. A human recombinant IL-1 receptor antagonist (referred to herein as “hIL-lra” or by its generic name, “anakinra”) which inhibits both IL-1β and IL-lα signaling was used to experimentally block IL-1 signaling.
as §1
Both Rhesus and human purified decidua cell suspensions were prepared as previously described (Presicce et al., 2015). Briefly, extra-placental membranes were dissected away from the placenta. Decidua cells were scraped from the amnion-chorion. Amnion was then separated from chorion and flash-frozen for protein and RNA studies. Decidua tissue was washed, and digested with Dispase II (Life Technologies, Grand Island, NY) plus collagenase A (Roche, Indianapolis, IN) for 30 min followed by DNase I (Roche) treatment for another 30 min. Cell suspensions were filtered subjected to Red blood cell lysis and prepared for flow cytometry. Viability was >90% by trypan blue exclusion test.
Commercially available monoclonal antibodies (mAbs) were used for multiparameter flow cytometry (LSR Fortessa 2, BD Biosciences, San Diego, CA) and immunophenotyping was done on fresh chorio-decidua cell suspensions, except for T-cell phenotyping, which was done on cultured cells since cell isolation procedure down-regulates CD4/8 expression. Chorio-decidua cell TNFα expression was measured by flow cytometry with anti-TNF Ab (Cytofix/Cytoperm; BD Bioscience). To measure cytokine expression induced by in vivo exposures, flow cytometry was done on cells immediately after isolation without any stimulation and/or intracellular blockers. For all protocols, cells were treated with […] human immunoglobulin G (IgG) to block Fc receptors, stained for surface markers for 30 min at 4° C. in PBS, washed, and fixed in fixative stabilizing buffer (BD Bioscience). All antibodies were titrated for optimal detection of positive populations and mean fluorescence intensity. At least 500,000 events were recorded for each sample. Doublets were excluded based on forward scatter properties, and dead cells were excluded using LIVE/DEAD Fixable Aqua dead cell stain (Life Technologies). Unstained and negative biological population were used to determine positive staining for each marker. Data were analyzed using FlowJo version 9.5.2 software (TreeStar Inc., Ashland, OR).
Immunofluorescence was performed as previously described (Presicce et al., 2015). Briefly, paraffin embedded Rhesus fetal membrane sections were sectioned, subjected to antigen-retrieval by microwave boiling in citrate buffer followed by incubation with either anti-human CXCL8 (product G265-8; 1:25 dilution; BD Biosciences), or BCL2A1 (product b450; 1:50 dilution; LSBio, Seattle, WA), in 10% normal horse serum/0.2% Tween-20 at 4° C. overnight. […]

## CN(C)CC[C@H](CSc1ccccc1)Nc1ccc(S(=O)(=O)NC(=O)c2ccc(N3CCN(Cc4ccccc4-c4ccc(Cl)cc4)CC3)cc2)cc1[N+](=O)[O-] [ABT-737]
[1]; 0.1 µM, cultured 16 hr
  frequency of chorio-decidua Annexin V-/7aad- (non-apoptotic) neutrophils: did not show any significant effect
[1]; dose response curves generated using blood neutrophils, not shown
  concentrations toxic to the cells: ≥ 1000 nM

## Cc1ccc(NC(=O)c2cc3ccccc3c(/N=N/c3cc(S(=O)(=O)O)ccc3O)c2O)c(C)c1 [Compound 1.001]
[2]
  inhibition of Noxa binding in FP assays: strong inhibition
[2]; NSC-97318 (P2) with NSC-45195 (P4), wide range of concentrations
  additivity for inhibition of A1-Noxa binding, checkerboard assay: low level additivity
Primary splenocyte cells
  effect on cell survival: some effect

## rhIL1ra: human recombinant IL-1 receptor antagonist which inhibits both IL-1β and IL-1α signaling
[3]; 2 h after maternal subcutaneous dose, before AF dosing
  diffusion from maternal blood to amniotic fluid: 0.2%
[3]; 19 h level, trans-placental transfer
  transfer to fetal plasma: substantial transfer
[3]; amniotic fluid vs maternal blood
  elimination in the AF compared to maternal blood: slower
[3]; both compartments
  concentrations in AF and maternal blood: therapeutic concentrations
[4]; ELISA of lipid extract
  LPS induced amniotic fluid concentration of PGE2: decreased
[4]; IA LPS 16 h, immunoblot
  LPS-induced pIRAK1 in the amnion: decreased
[4]; IA LPS 16 h, mRNA
  expression of CSF3 in the amnion: decreased
  expression of CXCL8 in the amnion: decreased
  expression of IL6 in the amnion: decreased
[4]; IA LPS, FIG. 5B
  number (counts) of chorio-decidua neutrophils: to near controls levels
[4]; IA LPS, blocking IL-1R
  reduction of chorio-decidua neutrophil numbers: ~90%
[4]; IA LPS, data not shown
  overall CD leukocyte counts: decreased
[4]; IA LPS, flow cytometry
  CD16 expression in CD neutrophils: to near control levels
  CD63 expression in CD neutrophils: to near control levels
  chorio-decidua B-cell numbers: to control levels
  frequency of TNFα+ CD neutrophils: reversed
  neutrophil accumulation in the CD: reversed
[4]; LPS-exposed animals, quantitative PCR
  CAD expression of Bcl2A1: reversed
[4]; chorio-decidua interface, cell count/HPF
  BCL2A1+ neutrophils: decreased
[4]; immuno-histology
  IA LPS induced CD neutrophils expressing CXCL8: decreased
[4]; multiplex ELISA
  LPS induced amniotic fluid concentration of CXCL8: decreased
  LPS induced amniotic fluid concentration of IL6: decreased
  LPS induced amniotic fluid concentration of MCP1: decreased
